{"source": "patent US4971967A", "about": "“Quinolinecarboxylic acid derivatives, antibacterial compositions and use” (Kanebo Ltd, priority 1989, dated 1990)", "key": {"[1]": {"system": "Pseudomonas aeruginosa NCTC 10490", "experiment": "Antibacterial activity (MIC), P. aeruginosa NCTC 10490", "format": "cell-based", "details": "Pseudomonas aeruginosa, NCTC10490, Pseudomonas aeruginosa NCTC 10490, Gram -; read-out: Minimum inhibitory concentration (MIC)", "procedure,_shortened": "(§1)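 Minimum inhibitory concentrations follow the procedure set by the Japan Society of Chemotherapy. Depending on the compound, the 5000 μg/ml stock is made in 0.1 N sodium hydroxide or sterilized water, and the working standard is 1000 μg/ml.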"}, "[2]": {"system": "Serratia marcescens IAM 1184", "experiment": "Antibacterial activity (MIC), Serratia marcescens IAM 1184", "format": "cell-based", "details": "Serratia marcescens, IAM1184, Serratia marcescens IAM 1184, Gram -; read-out: Minimum inhibitory concentration (MIC)", "procedure,_shortened": "as §1"}, "[3]": {"system": "infection", "experiment": "Protective effects against infection (Experiments 3 and 4)", "format": "in vivo, ddY male mice", "details": "result in words", "experimental": "(§2) The test microorganisms were subjected to standing culture in Trypto-Soya Agar \"Nissui\" (made by Nissui Seiyaku K.K., Japan) at 37° C. for 16 to 18 hours. The culture was then diluted with PBS (Dulbecco's phosphate buffered saline) and mixed with an equivalent amount of 10% (w/v) Mucin (BACTO MUCIN BACTERIOLOGICAL, made by Difco Co.) to prepare a microorganism solution. The thus prepared microorganism solution (0.5 ml each) was intraperitoneally inoculated to ddY male mice (5 weeks age, weighing 25-28 g, 5 mice in each group), to infect the animals. One hour after the infection, the compound (A) or (J) of the present invention or the known compound (X) suspended in 1% (w/v) aqueous gum arabic or the known compound (Y) dissolved in sterilized distilled water was orally adiministered to mice.\n(§3) The mice were daily observed for one week, and from the survival number of mice after one week, the 50% effective dose (ED50) was calculated by Weil method.\n(§4) The procedure of Experiment 3 was repeated except that ddY male mice weighing 24 to 28 g were employed."}, "[4]": {"experiment": "Acute toxicity (LD50) (Experiment 6)", "details": "mouse, in vivo; oral, mice fasted 18 hours, observed for a week", "experimental": "(§5) The compound (O) or (P) of the present invention was suspended in sterilized distilled water to prepare a suspension. The suspension was orally adminstered to ddY male mice (5 weeks age, weighing 20 to 25 g, 5 mice in each group), which had been fasted for 18 hours."}, "[5]": {"experiment": "Low toxicity (Experiments 5 and 6)", "format": "in vivo, ddY male mice", "details": "result in words", "experimental": "The compound (A) or (J) of the present invention was suspended in 1% (w/v) aqueous gum arabic to prepare a suspension in concentration of 100 mg/ml. The suspension was orally administered to ddY male mice (5 weeks age, weighing 20 to 25 g, 5 mice in each group), which had been fasted for 18 hours, at a rate of 2000 mg/kg body weight of the compound (A) or (J).\nas §5"}, "[6]": {"system": "Pseudomonas aeruginosa E-2", "experiment": "Effect on treatment of general infectious disease, P. aeruginosa E-2 (Experiment 4)", "format": "in vivo, ddY male mice infected with Pseudomonas aeruginosa", "details": "E2, 168 h, oral, 1 h after i.p. infection, 3.4×10^4 CFU/mouse, survival after one week", "experimental": "as §2, §3\nPseudomonas aeruginosa E-2 (3.4×10^4 CFU/mouse)\nas §4"}, "[7]": {"system": "Citrobacter freundii NIHJ 10018-68", "experiment": "Antibacterial activity (MIC), Citrobacter freundii NIHJ 10018-68", "format": "cell-based", "details": "Citrobacter freundii, NIHJ10018, Citrobacter freundii NIHJ 10018-68, Gram -; read-out: Minimum inhibitory concentration (MIC)", "procedure,_shortened": "as §1"}, "[8]": {"system": "Staphylococcus aureus FDA 209P JC-1", "experiment": "Antibacterial activity (MIC), S. aureus FDA 209P JC-1", "format": "cell-based", "details": "FDA209P; Staphylococcus aureus FDA 209P JC-1, Gram +; read-out: Minimum inhibitory concentration (MIC)", "procedure,_shortened": "as §1"}, "[9]": {"system": "Acinetobacter calcoaceticus AC 54", "experiment": "Antibacterial activity (MIC), Acinetobacter calcoaceticus AC 54", "format": "cell-based", "details": "AC54; Acinetobacter calcoaceticus AC 54, Gram -; read-out: Minimum inhibitory concentration (MIC)", "procedure,_shortened": "as §1"}, "[10]": {"system": "Pseudomonas aeruginosa E-2", "experiment": "Antibacterial activity (MIC), P. aeruginosa E-2", "format": "cell-based", "details": "E2; Pseudomonas aeruginosa E-2, Gram -; read-out: Minimum inhibitory concentration (MIC)", "procedure,_shortened": "as §1"}, "[11]": {"system": "Proteus vulgaris OX-19", "experiment": "Antibacterial activity (MIC), Proteus vulgaris OX-19", "format": "cell-based", "details": "OX19; Proteus vulgaris OX-19, Gram -; read-out: Minimum inhibitory concentration (MIC)", "procedure,_shortened": "as §1"}, "[12]": {"system": "Enterobacter cloacae 963", "experiment": "Antibacterial activity (MIC), Enterobacter cloacae 963", "format": "cell-based", "details": "Enterobacter cloacae, 963, Enterobacter cloacae 963, Gram -; read-out: Minimum inhibitory concentration (MIC)", "procedure,_shortened": "as §1"}, "[13]": {"system": "Escherichia coli KC-14", "experiment": "Antibacterial activity (MIC), E. coli KC-14", "format": "cell-based", "details": "KC14; Escherichia coli KC-14, Gram -; read-out: Minimum inhibitory concentration (MIC)", "procedure,_shortened": "as §1"}, "[14]": {"system": "Klebsiella pneumoniae PCI-602", "experiment": "Antibacterial activity (MIC), Klebsiella pneumoniae PCI-602", "format": "cell-based", "details": "PCI602; Klebsiella pneumoniae PCI-602, Gram -; read-out: Minimum inhibitory concentration (MIC)", "procedure,_shortened": "as §1"}, "[15]": {"system": "Morganella morganii IFO 3848", "experiment": "Antibacterial activity (MIC), Morganella morganii IFO 3848", "format": "cell-based", "details": "Morganella morganii, IFO3848, Morganella morganii IFO 3848, Gram -; read-out: Minimum inhibitory concentration (MIC)", "procedure,_shortened": "as §1"}, "[16]": {"system": "Proteus mirabilis IFO 3849", "experiment": "Antibacterial activity (MIC), Proteus mirabilis IFO 3849", "format": "cell-based", "details": "IFO3849; Proteus mirabilis IFO 3849, Gram -; read-out: Minimum inhibitory concentration (MIC)", "procedure,_shortened": "as §1"}, "[17]": {"system": "Staphylococcus aureus IID 803", "experiment": "Effect on treatment of general infectious disease, S. aureus IID 803 (Experiment 4)", "format": "in vivo, ddY male mice infected with Staphylococcus aureus", "details": "IID803, 168 h, oral, 1 h after i.p. infection, 2.1×10^7 CFU/mouse, survival after one week", "experimental": "as §2, §3\nStaphylococcus aureus IID 803 (2.1×10^7 CFU/mouse)\nas §4"}, "[18]": {"system": "Shigella sonnei EW-33", "experiment": "Antibacterial activity (MIC), Shigella sonnei EW-33", "format": "cell-based", "details": "Shigella sonnei, EW33, Shigella sonnei EW-33, Gram -; read-out: Minimum inhibitory concentration (MIC)", "procedure,_shortened": "as §1"}, "[19]": {"system": "Staphylococcus epidermidis IAM-1296", "experiment": "Antibacterial activity (MIC), S. epidermidis IAM-1296", "format": "cell-based", "details": "Staphylococcus epidermidis, IAM1296, Staphylococcus epidermidis IAM-1296, Gram +; read-out: Minimum inhibitory concentration (MIC)", "procedure,_shortened": "as §1"}, "[20]": {"system": "Micrococcus luteus ATCC 9341", "experiment": "Antibacterial activity (MIC), Micrococcus luteus ATCC 9341", "format": "cell-based", "details": "ATCC9341; Micrococcus luteus ATCC 9341, Gram +; read-out: Minimum inhibitory concentration (MIC)", "procedure,_shortened": "as §1"}, "[21]": {"system": "Pseudomonas aeruginosa IFO 3445", "experiment": "Antibacterial activity (MIC), P. aeruginosa IFO 3445", "format": "cell-based", "details": "Pseudomonas aeruginosa, IFO3445, Pseudomonas aeruginosa IFO 3445, Gram -; read-out: Minimum inhibitory concentration (MIC)", "procedure,_shortened": "as §1"}, "[22]": {"system": "Salmonella typhimurium IID 971", "experiment": "Antibacterial activity (MIC), Salmonella typhimurium IID 971", "format": "cell-based", "details": "Salmonella enterica; Salmonella typhimurium IID 971, Gram -; read-out: Minimum inhibitory concentration (MIC)", "procedure,_shortened": "as §1"}, "[23]": {"system": "Streptococcus faecalis IID 682", "experiment": "Antibacterial activity (MIC), Streptococcus faecalis IID 682", "format": "cell-based", "details": "Enterococcus faecalis, IID682, Streptococcus faecalis IID 682, Gram +; read-out: Minimum inhibitory concentration (MIC)", "procedure,_shortened": "as §1"}, "[24]": {"system": "Enterobacter aerogenes ATCC 13048", "experiment": "Antibacterial activity (MIC), Enterobacter aerogenes ATCC 13048", "format": "cell-based", "details": "Klebsiella aerogenes, ATCC13048; Enterobacter aerogenes ATCC 13048, Gram -; read-out: Minimum inhibitory concentration (MIC)", "procedure,_shortened": "as §1"}, "[25]": {"system": "Bacillus subtilis ATCC 6633", "experiment": "Antibacterial activity (MIC), Bacillus subtilis ATCC 6633", "format": "cell-based", "details": "Bacillus subtilis, ATCC6633, Bacillus subtilis ATCC 6633, Gram +; read-out: Minimum inhibitory concentration (MIC)", "procedure,_shortened": "as §1"}, "[26]": {"system": "Staphylococcus aureus IID 803", "experiment": "Antibacterial activity (MIC), S. aureus IID 803", "format": "cell-based", "details": "IID803; Staphylococcus aureus IID 803, Gram +; read-out: Minimum inhibitory concentration (MIC)", "procedure,_shortened": "as §1"}, "[27]": {"system": "Escherichia coli NIHJ JC-2", "experiment": "Antibacterial activity (MIC), E. coli NIHJ JC-2", "format": "cell-based", "details": "NIHJJC2; Escherichia coli NIHJ JC-2, Gram -; read-out: Minimum inhibitory concentration (MIC)", "procedure,_shortened": "as §1"}}}
{"smiles": "CC1CN(c2c(F)cc3c(=O)c(C(=O)O)c4scc5n4c3c2N(C)C5)CC(C)N1C", "note": "(stereo not drawn) [Compound (P), 9,1-(Methylimino)methano-7-fluoro-8-(3,4,5-trimethyl-1-piperazinyl)-5-oxo-5H-thiazolo[3,2-a]quinoline-4-carboxylic acid]", "values": [{"measurement": "MIC", "setting": "[1]", "value": 1.56, "unit": "µg/mL"}, {"measurement": "MIC", "setting": "[2]", "value": 1.56, "unit": "µg/mL"}, {"measurement": "protective effects against infection", "setting": "[3]", "value": "excellent protective effects against infection"}, {"measurement": "LD50 at 168 h", "setting": "[4]", "value": 1070, "unit": "mg/kg"}, {"measurement": "toxicity", "setting": "[5]", "value": "low toxicity"}, {"measurement": "ED50", "setting": "[6]", "value": 11.1, "unit": "mg/kg"}, {"measurement": "MIC", "setting": "[7]", "value": 1.56, "unit": "µg/mL"}, {"measurement": "MIC", "setting": "[8]", "value": 0.025, "unit": "µg/mL"}, {"measurement": "MIC", "setting": "[9]", "value": 0.025, "unit": "µg/mL"}, {"measurement": "MIC", "setting": "[10]", "value": 1.56, "unit": "µg/mL"}, {"measurement": "MIC", "setting": "[11]", "value": 0.1, "unit": "µg/mL"}, {"measurement": "MIC", "setting": "[12]", "value": 0.2, "unit": "µg/mL"}, {"measurement": "MIC", "setting": "[13]", "value": 0.1, "unit": "µg/mL"}, {"measurement": "MIC", "setting": "[14]", "value": 0.006, "unit": "µg/mL"}, {"measurement": "MIC", "setting": "[15]", "value": 0.39, "unit": "µg/mL"}, {"measurement": "MIC", "setting": "[16]", "value": 0.78, "unit": "µg/mL"}, {"measurement": "ED50", "setting": "[17]", "value": 1.9, "unit": "mg/kg"}, {"measurement": "MIC", "setting": "[18]", "value": 0.05, "unit": "µg/mL"}, {"measurement": "MIC", "setting": "[19]", "value": 0.1, "unit": "µg/mL"}, {"measurement": "MIC", "setting": "[20]", "value": 0.39, "unit": "µg/mL"}, {"measurement": "MIC", "setting": "[21]", "value": 3.13, "unit": "µg/mL"}, {"measurement": "MIC", "setting": "[22]", "value": 0.39, "unit": "µg/mL"}, {"measurement": "MIC", "setting": "[23]", "value": 0.2, "unit": "µg/mL"}, {"measurement": "MIC", "setting": "[24]", "value": 0.2, "unit": "µg/mL"}, {"measurement": "MIC", "setting": "[25]", "value": 0.006, "unit": "µg/mL"}, {"measurement": "MIC", "setting": "[26]", "value": 0.025, "unit": "µg/mL"}, {"measurement": "MIC", "setting": "[27]", "value": 0.1, "unit": "µg/mL"}]}
